The values that follow come from patent US20080076129A1, “Method of Detecting an Increased Susceptibility to Breast Cancer” (priority 2000, published 2008).

The structures appear in SMILES notation.

In one series the test system is renal DNA. The settings on record: in vivo; cited from earlier work.
The subject of series [1] is DNA. The settings on record: cited from earlier work.
The target in the next series is T1, COMT (Homo sapiens, UniProt P21964).
T1 construct: made in house; host or cells: Escherichia coli DH5αF′Iq
T1 sequence (P21964 51-271): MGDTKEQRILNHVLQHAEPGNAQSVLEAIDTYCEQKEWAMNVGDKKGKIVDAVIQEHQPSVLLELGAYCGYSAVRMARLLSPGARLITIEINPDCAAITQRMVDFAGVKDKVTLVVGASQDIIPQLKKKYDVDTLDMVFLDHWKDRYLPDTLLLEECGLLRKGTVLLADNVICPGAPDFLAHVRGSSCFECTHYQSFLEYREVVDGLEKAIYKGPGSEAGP
Description: Assay of COMT activity, purified recombinant His-COMT, methylation of catechol estrogens. The class given is biochemical. The conditions noted are these: substrate 2-100 μM. As to the method: Assay of COMT Activity. Purified recombinant His-COMT (300 pmol) was reconstituted 0.5 ml of 100 mM KPO4, pH 7.4, containing 5 mM MgCl2, 10 mM β-mercaptoethanol, and 200 μM SAM. Reactions were initiated by adding varying concentrations of each individual catechol estrogen (2, 3, 6, 9, 12, 15, 20, 40, 60, 80, and 100 μM). Blanks contained all compounds except SAM. Reactions proceeded for 10 min at 37° C. with gentle shaking and then were terminated by addition of 2 ml CH2Cl2. To determine COMT activity in breast cancer cells, ZR-75 and MCF-7 cells were harvested at confluency and homogenized in 100 mM KPO4, pH 7.4, 5 mM MgCl2, 10 mM β-mercaptoethanol. Following ultracentrifugation of the cell homogenate (110,000 g, 30 min, 4° C.), the supernatant cytosol was divided into aliquots for ICELISA, protein determination (BCA assay; Pierce, Rockford, Ill.), and COMT assay. The latter was carried out in the presence of 200 μM SAM and 100 μM catechol estrogen for 20 min at 37° C. and then terminated by addition of CH2Cl2. The concentration of endogenous catechol and methoxy estrogens was below the limit of detection by gas chromatography/mass spectrometry.
Extraction and Gas Chromatography/Mass Spectrometry Analysis of Catechol Estrogens. A deuterated internal standard (100 μl of 8 mg/liter E2-d4 in methanol) was added and all estrogens extracted into the CH2Cl2 by vortex mixing for 30 s. 1.5 ml of the CH2Cl2 fraction was evaporated to dryness under air and volatile TMS derivatives prepared by heating the residue with 100 μl of 50% NO-bis(trimethylsilyl)trifluoroacetamide/1% trimethyl chlorosilane in acetonitrile at 56° C. for 30 min. The TMS derivatives of the estrogen metabolites were separated by gas chromatography (H-P 5890, Hewlett-Packard, Wilmington, Del.) on a 5% phenyl methyl silicone stationary phase fused silica capillary column (30 m×0.2 mm×0.5 μm film, HP5; Hewlett-Packard). Helium carrier gas was used at a flow of 1 ml/min. The injector was operated at 250° C., with 2 μl injected in the splitless mode, with a purge (60 ml/min helium) time of 0.6 min. The oven temperature was held at 180° C. for 0.5 min, then raised at 6° C./min to 250° C. where it was held for 17 min, then raised to 300° C. at 8° C./min to give a total run time of 35.42 min. This program permitted adequate separation of a wide range of estrogen metabolites. Retention times (in min) for the TMS derivatives were E1 20.13, E2 and E2-d4 21.89, 4-MeOE1 23.52, 2-MeO-3-MeOE1 (underivatized) 23.75, 2-OH-3-MeOE1 24.87, 2-MeOE1 25.2, 4-MeOE2 25.78, 2-OHE1 and 2-MeO-3-MeOE2 26.19, 2-OH-3-MeOE2 26.9, 2-MeOE2 27.18, 4-OHE1 27.27, 6α-OHE2 27.29, 2-OHE2 27.44, 4-OHE2 28.06, E3 28.38. The EI mass spectrometer (H-P 5970) was operated in the selected ion monitoring mode from 18 to 30 min. Ions monitored were TMS-E1 342, 257, 343; TMS2-E2-d4 420, 421, 287; TMS2-E2 416, 417, 285; TMS-4-MeOE1, TMS-2-OH-3-MeOE1, TMS-2-MeOE1 and TMS-3-MeO-4-OHE1 372, 373, 342; 2-MeO-3-MeOE1 314, 315, 229; TMS2-4-MeOE2, TMS2-2-OH-3-MeOE2, TMS2-2-MeOE2 and TMS2-3-MeO-4-OHE2 446, 447, 315; TMS2-2-OHE1 430, 431, 432; TMS-2-MeO-3-MeOE2 388, 389, 257; TMS2-4-OHE1 430, 431, 345; TMS2-6α-OHE2 414, 283, 309; TMS3-2-OHE2 and TMS3-4-OHE2 504, 505, 373; TMS3-E3 504, 505, 311 (FIG. 7). The instrument was calibrated by simultaneous preparation of an 11-point calibration over the range 0-22 nmol/tube of each compound. Sensitivity was determined to be between 0.02 and 0.04 nmol/tube (400-800 fmol on column) for the various compounds. […] Absolute extraction efficiency for E2, 2-OH-E2 and 4-OH-E2 at 3.5 nmol/tube was 119, 96, and 107% assessed by comparison to injections of spiked solvent samples onto the gas chromatograph. Internal standard added prior to extraction compensated for deviation from 100% recovery for all investigated compounds.
Statistical Analysis. […]

Another series has as its system Syrian hamster. The settings on record: in vivo; cited from earlier work.
Series [2] deals with DNA. The conditions noted are these: cited from earlier work. This is another data set of the same source.

As for `C[C@]12CC[C@@H]3c4cc(O)c(O)cc4CC[C@H]3[C@@H]1CC[C@@H]2O` [2-OHE2], the “levels of the oxidized base 8-hydroxy-deoxyguanosine” value in the series on renal DNA is given as “did not cause oxidative DNA damage”. In addition, the DNA single-strand breaks result in the series with DNA [1] was “negligible effect”. Also, the “pattern of rates of methylation” value at COMT is “typical hyperbolic patterns”.

In the case of `C[C@]12CC[C@@H]3c4ccc(O)c(O)c4CC[C@H]3[C@@H]1CC[C@@H]2O` [4-OHE2], the “levels of the oxidized base 8-hydroxy-deoxyguanosine” value in the series on renal DNA was “significantly increased”. Also, the DNA single-strand breaks entry in the series on DNA [1] was “induced DNA single-strand breaks”. For the same compound, the “pattern of rates of methylation” value on COMT was “sigmoid curve pattern”. Also, the “induction of renal cancer” value in the series with Syrian hamster is recorded as “induced renal cancer”.

`C[C@]12CC[C@@H]3C4=C(CC[C@H]3[C@@H]1CCC2=O)C(=O)C(=O)C=C4` [E1-3,4Q]: in the series on DNA [2], the “levels of depurinating DNA adducts versus E2-2,3Q and E1-2,3Q” value is reported as “two to three orders of magnitude higher”.

`C[C@]12CC[C@@H]3C4=C(CC[C@H]3[C@@H]1CC[C@@H]2O)C(=O)C(=O)C=C4` [E2-3,4Q]: the “levels of depurinating DNA adducts versus E2-2,3Q and E1-2,3Q” value in the series with DNA [2] is “two to three orders of magnitude higher”.
